Where only a bound is given, the exact number is not on record here.

In this assay the target is USP30 (Homo sapiens (Human), UniProt Q70CQ3). As to the kind of experiment: USP30 biochemical FP or FI IC50 assay. The conditions noted are these: read-out: IC50 range. Here is the method: USP30 Biochemical IC50 Assay
Chain of USP30 (Q70CQ3 57-517): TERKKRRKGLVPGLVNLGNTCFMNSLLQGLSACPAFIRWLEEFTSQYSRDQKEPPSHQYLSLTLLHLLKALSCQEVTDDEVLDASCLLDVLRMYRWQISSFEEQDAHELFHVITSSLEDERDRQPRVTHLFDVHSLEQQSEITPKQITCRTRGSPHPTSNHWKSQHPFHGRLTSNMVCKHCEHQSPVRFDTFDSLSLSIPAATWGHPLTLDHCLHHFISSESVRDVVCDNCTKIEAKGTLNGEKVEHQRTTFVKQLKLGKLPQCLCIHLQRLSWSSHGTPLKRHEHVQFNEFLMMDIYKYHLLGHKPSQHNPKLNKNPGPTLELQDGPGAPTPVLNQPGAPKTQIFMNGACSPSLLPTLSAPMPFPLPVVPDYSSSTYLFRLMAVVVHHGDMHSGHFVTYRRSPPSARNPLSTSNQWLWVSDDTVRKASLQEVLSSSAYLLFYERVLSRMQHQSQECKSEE
Dilution plates were prepared at 21 times the final concentration (2100 μM for a final concentration of 100 μM) in 50% DMSO in a 96-well polypropylene V-bottom plate (Greiner #651201). A typical 8-point dilution series would be 100, 30, 10, 3, 1, 0.3, 0.1, 0.03 μM final. Reactions were performed in duplicate in black 384 well plates (small volume, Greiner 784076) in a final reaction volume of 21 μl. Either 1 μl of 50% DMSO or diluted compound was added to the plate. USP30 was diluted in reaction buffer (40 mM Tris, pH 7.5, 0.005% Tween 20, 0.5 mg/ml BSA, 5 mM—beta-mercaptoethanol) to the equivalent of 0.05 μl/well and 10 μl of diluted USP30 was added to the compound. Enzyme and compound were incubated for 30 min at room temp. Reactions were initiated by the addition of 50 nM of TAMRA labelled peptide linked to ubiquitin via an iso-peptide bond as fluorescence polarisation substrate. Reactions were read immediately after addition of substrate and following a 2 hr incubation at room temperature. Readings were performed on a Pherastar Plus (BMG Labtech). λ Excitation 540 nm; λ Emission 590 nm.
USP30 Biochemical Fluorescence Intensity IC50 Assay
Dilution plates were prepared at 21 times the final concentration (2100 μM for a final concentration of 100 μM) in 50% DMSO in a 96-well polypropylene V-bottom plate (Greiner #651201). A typical 8-point dilution series would be 100, 30, 10, 3, 1, 0.3, 0.1, 0.03 μM final. Reactions were performed in duplicate in black 384 well plates (small volume, Greiner 784076) in a final reaction volume of 21 μl.
Either 1 μl of 50% DMSO or diluted compound was added to the plate. USP30 was diluted in reaction buffer (40 mM Tris, pH 7.5, 0.005% Tween 20, 0.5 mg/ml BSA, 5 mM—beta-mercaptoethanol) to the equivalent of 0.001 μl/well and 10 μl of diluted USP30 was added to the compound. Enzyme and compound were incubated for 30 min at room temp. Reactions were initiated by the addition of Ubiquitin-Rhodamine 110 (U-555; Boston Biochem) at a final concentration of 100 nM. Reactions were read immediately after addition of substrate and following a 2 h incubation at room temperature. Readings were performed on a Pherastar Plus (BMG Labtech). λ Excitation 487 nm; λ Emission 535 nm.
Turning to `N#CN1C[C@H]2CCN(C(=O)c3ccc(-c4ccccc4)[nH]c3=O)[C@H]2C1` [Example 61, (3aR,6aR)-1-(2-oxo-6-phenyl-1,2-dihydropyridine-3-carbonyl)hexahydropyrrolo[3,4-b]pyrrole-5(1H)-carbonitrile], the concentration for half-maximal inhibition (IC50) (commonly the concentration at which inhibition is half-maximal) was in the range of 100 to 1000 nM.
The result for `CC(C)C(=O)N(C)c1cccc(C(=O)N[C@@H]2CCN(C#N)C2)c1` [Example 62, (R)—N-(1-cyanopyrrolidin-3-yl)-3-(N-methylisobutyramido)benzamide] reads 100 to 1000 nM.
The same measure for `N#CN1CC[C@@H](NC(=O)c2ncc(-c3ccccc3)cn2)C1` [Example 63, (R)—N-(1-cyanopyrrolidin-3-yl)-5-phenylpyrimidine-2-carboxamide]: 100 to 1000 nM; for `N#CN1CC[C@@H](NC(=O)c2cc(-c3ccncc3)no2)C1` [Example 64, (R)—N-(1-cyanopyrrolidin-3-yl)-3-(pyridin-4-yl)isoxazole-5-carboxamide]: 100 to 1000 nM.
As to `N#CN1CC[C@@H](NC(=O)c2cc(-c3cccnc3)no2)C1` [Example 65, (R)-N-(1-cyanopyrrolidin-3-yl)-3-(pyridin-3-yl)isoxazole-5-carboxamide], the IC50 was 100 to 1000 nM.
The result for `N#CN1CC[C@@H](NC(=O)c2cc(-c3ccccn3)no2)C1` [Example 66, (R)-N-(1-cyanopyrrolidin-3-yl)-3-(pyridin-2-yl)isoxazole-5-carboxamide] reads 100 to 1000 nM; that for `N#CN1CC[C@@H](NC(=O)c2cc(-c3ccccc3)cnn2)C1` [Example 67, (R)—N-(1-cyanopyrrolidin-3-yl)-5-phenylpyridazine-3-carboxamide], 100 to 1000 nM.
On to `CN(C(=O)c1ccc(-c2ccccc2)cc1)C1CCN(C#N)C1` (stereo not shown) [Example 68, N-(1-cyanopyrrolidin-3-yl)-N-methyl-[1,1′-biphenyl]-4-carboxamide], for which the IC50 lay within 100 to 1000 nM.
Take `C[C@H]1CN(C#N)C[C@@H]1NC(=O)c1ncc(-c2ccccc2)s1` [Example 69, N-((3R,4S)-1-cyano-4-methylpyrrolidin-3-yl)-5-phenylthiazole-2-carboxamide]: the IC50 fell in the range of 1000 to 10000 nM.
`C[C@@H]1CN(C#N)C[C@H]1NC(=O)c1ncc(-c2ccccc2)s1` [Example 70, N-((3S,4R)-1-cyano-4-methylpyrrolidin-3-yl)-5-phenylthiazole-2-carboxamide]: the IC50 is below 100 nM.
The same measure for `C[C@H]1CN(C#N)C[C@@H]1NC(=O)c1cnc(-c2ccccc2)s1` [Example 71, N-((3R,4S)-1-cyano-4-methylpyrrolidin-3-yl)-2-phenylthiazole-5-carboxamide]: 100 to 1000 nM; for `C[C@@H]1CN(C#N)C[C@H]1NC(=O)c1cnc(-c2ccccc2)s1` [Example 72, N-((3S,4R)-1-cyano-4-methylpyrrolidin-3-yl)-2-phenylthiazole-5-carboxamide]: below 100 nM; for `N#CN1CC[C@@H](NC(=O)c2ccnc(N3Cc4ccccc4C3)c2)C1` [Example 73, (R)—N-(1-cyanopyrrolidin-3-yl)-2-(isoindolin-2-yl)isonicotinamide]: 100 to 1000 nM.
The result for `N#CN1CC[C@@H](NC(=O)c2ccnc(N3CCc4ccccc4C3)c2)C1` [Example 74, (R)—N-(1-cyanopyrrolidin-3-yl)-2-(3,4-dihydroisoquinolin-2(1H)-yl)isonicotinamide] reads 100 to 1000 nM.
The result for `Cc1cn(-c2ccc(C(=O)N[C@@H]3CCN(C#N)C3)c(F)c2)cn1` [Example 75, (R)—N-(1-cyanopyrrolidin-3-yl)-2-fluoro-4-(4-methyl-1H-imidazol-1-yl)benzamide] reads 100 to 1000 nM.
As to `Cn1cc(-c2ccc(C(=O)N[C@@H]3CCN(C#N)C3)cc2F)cn1` [Example 76, (R)-N-(1-cyanopyrrolidin-3-yl)-3-fluoro-4-(1-methyl-1H-pyrazol-4-yl)benzamide], the IC50 was below 100 nM.
The result for `Cn1cc(-c2ccc(C(=O)N[C@@H]3CCN(C#N)C3)c(F)c2)cn1` [Example 77, (R)-N-(1-cyanopyrrolidin-3-yl)-2-fluoro-4-(1-methyl-1H-pyrazol-4-yl)benzamide] reads below 100 nM; that for `Cn1cc(-c2cc(F)c(C(=O)N[C@@H]3CCN(C#N)C3)cc2F)cn1` [Example 78, (R)-N-(1-cyanopyrrolidin-3-yl)-2,5-difluoro-4-(1-methyl-1H-pyrazol-4-yl)benzamide], below 100 nM.
The result for `Cc1nn(C)cc1-c1ccc(C(=O)N[C@@H]2CCN(C#N)C2)cc1F` [Example 79, (R)-N-(1-cyanopyrrolidin-3-yl)-4-(1,3-dimethyl-1H-pyrazol-4-yl)-3-fluorobenzamide] reads below 100 nM; that for `Cc1nn(C)cc1-c1ccc(C(=O)N[C@@H]2CCN(C#N)C2)c(F)c1` [Example 80, (R)-N-(1-cyanopyrrolidin-3-yl)-4-(1,3-dimethyl-1H-pyrazol-4-yl)-2-fluorobenzamide], below 100 nM.
The same measure for `CCn1cc(-c2ccc(C(=O)N[C@@H]3CCN(C#N)C3)c(F)c2)cn1` [Example 81, (R)-N-(1-cyanopyrrolidin-3-yl)-4-(1-ethyl-1H-pyrazol-4-yl)-2-fluorobenzamide]: below 100 nM.
For `COCCn1cc(-c2ccc(C(=O)N[C@@H]3CCN(C#N)C3)c(F)c2)cn1` [Example 82, (R)-N-(1-cyanopyrrolidin-3-yl)-2-fluoro-4-(1-(2-methoxyethyl)-1H-pyrazol-4-yl)benzamide], the IC50 lay within 100 to 1000 nM.
The same measure for `Cn1cc(-c2ccc3nc(C(=O)N[C@@H]4CCN(C#N)C4)[nH]c3c2)cn1` [Example 83, (R)-N-(1-cyanopyrrolidin-3-yl)-6-(1-methyl-1H-pyrazol-4-yl)-1H-benzo[d]imidazole-2-carboxamide]: 100 to 1000 nM.
The same measure for `Cn1cc(-c2ccc3cc(C(=O)N[C@@H]4CCN(C#N)C4)[nH]c3c2)cn1` [Example 84, (R)-N-(1-cyanopyrrolidin-3-yl)-6-(1-methyl-1H-pyrazol-4-yl)-1H-indole-2-carboxamide]: 100 to 1000 nM; for `N#CN1CC[C@@H](NC(=O)c2ccc(-c3cn[nH]c3C(F)(F)F)cc2F)C1` [Example 85, (R)-N-(1-cyanopyrrolidin-3-yl)-2-fluoro-4-(5-(trifluoromethyl)-1H-pyrazol-4-yl)benzamide]: below 100 nM.
The result for `Cn1ncc2cc(-c3ccc(C(=O)N[C@@H]4CCN(C#N)C4)c(F)c3)ccc21` [Example 86, (R)-N-(1-cyanopyrrolidin-3-yl)-2-fluoro-4-(1-methyl-1H-indazol-5-yl)benzamide] reads below 100 nM.
For the compound `CN(C(=O)c1ccc(-c2cnn(C)c2)c(F)c1)[C@@H]1CCN(C#N)C1` [Example 87, (R)-N-(1-cyanopyrrolidin-3-yl)-3-fluoro-N-methyl-4-(1-methyl-1H-pyrazol-4-yl)benzamide], the half-maximal inhibitory concentration (IC50) is 100 to 1000 nM.
The same measure for `CN(C(=O)c1nc2ccc(-c3cnn(C)c3)cc2[nH]1)[C@@H]1CCN(C#N)C1` [Example 88, (R)-N-(1-cyanopyrrolidin-3-yl)-N-methyl-6-(1-methyl-1H-pyrazol-4-yl)-1H-benzo[d]imidazole-2-carboxamide]: 100 to 1000 nM.
The result for `CN(C(=O)N1CC(Oc2ccccc2)C1)[C@@H]1CCN(C#N)C1` [Example 89, (R)—N-(1-cyanopyrrolidin-3-yl)-N-methyl-3-phenoxyazetidine-1-carboxamide] reads 100 to 1000 nM; that for `N#CN1C[C@H]2CCN(C(=O)Nc3ccc(C(F)(F)F)cc3F)[C@H]2C1` [Example 90, (3aR,6aR)-5-cyano-N-(2-fluoro-4-(trifluoromethyl)phenyl)hexahydropyrrolo[3,4-b]pyrrole-1(2H)-carboxamide], below 100 nM; that for `N#CN1CC[C@@H](NC(=O)c2ccc(Nc3ncccn3)cc2F)C1` [Example 91, (R)—N-(1-cyanopyrrolidin-3-yl)-2-fluoro-4-(pyrimidin-2-ylamino)benzamide], below 100 nM.
The same measure for `Cn1cc(-c2ccc(C(=O)NC3(C)CCN(C#N)C3)c(F)c2)cn1` (stereo not shown) [Example 94, N-(1-cyano-3-methylpyrrolidin-3-yl)-2-fluoro-4-(1-methyl-1H-pyrazol-4-yl)benzamide]: 1000 to 10000 nM; for `COc1ccc(-c2cc(C(=O)N[C@@H]3CCN(C#N)C3)n[nH]2)cc1` [Example 95, (R)-N-(1-cyanopyrrolidin-3-yl)-5-(4-methoxyphenyl)-1H-pyrazole-3-carboxamide]: below 100 nM; for `N#CN1CC[C@@H](NC(=O)c2cc(-c3ccccn3)[nH]n2)C1` [Example 96, (R)-N-(1-cyanopyrrolidin-3-yl)-5-(pyridin-2-yl)-1H-pyrazole-3-carboxamide]: 100 to 1000 nM.

These data come from US10343992B2, “1-cyano-pyrrolidine compounds as USP30 inhibitors” (MISSION THERAPEUTICS LIMITED, priority 2015, dated 2019).
